Experimental data taken from patent publication US20240262842A1, “SMALL MOLECULE INHIBITORS OF KRAS G12C MUTANT” (Merck Sharp & Dohme LLC, priority 2021, published 2024).
Like-named read-outs stand apart in the source and are kept apart here.

Assays:
MIA PaCa-2 cells = assay: Growth inhibition activity on KRAS-G12C mutant cell line (CellTiter-Glo 3D); assay type: cell-based, human; conditions: MIA PaCa-2, 3-day culture with compound
Procedure, shortened: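 IC50 (nM) derived from inhibition of luminescence (CellTiter-Glo 3D) relative to compound-free wells. Cells were seeded in U-bottom plates, grown 1 day, then exposed to compound for 3 days at 37 °C with 0.2% final DMSO.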

[1] = molecular target: T1, interaction between GMPPNP-bound recombinant K-Ras4B G12C mutant protein and cRAF RAS-binding domain (cRAF-RBD) (Homo sapiens, UniProt P01116, G12C); assay: Inhibitory activity on interaction between KRAS G12C and cRAF (Alpha technology)
T1 construct: His-tag (N)
Procedure, shortened: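 Alpha signal measured 1.5 h after adding cRAF-RBD (aa 50-132) and detection reagents to GMPPNP-bound KRAS G12C (aa 1-169) pretreated 1 h at 25° C with compound (pH 7.5 buffer). 0% inhibition = DMSO, 100% = GDP-loaded KRAS; IC50 by curve fit.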

[2] = GMPPNP-bound KRAS G12C incubated with compound 25° C. 1 hour, Table 2-1, read-out: IC50
[3] = Homo sapiens, MIA PaCa-2, 72 h, Table 3-1
[4] = IC50, GMPPNP-bound KRAS G12C incubated with compound 25° C. 1 hour, Table 2-1
[5] = Homo sapiens, MIA PaCa-2, 72 h, Table 3
[6] = IC50, GMPPNP-bound KRAS G12C incubated with compound 25° C. 1 hour, Table 2

T1 sequence (P01116 with tags, fused parts or gaps isoform P01116-2 G12C): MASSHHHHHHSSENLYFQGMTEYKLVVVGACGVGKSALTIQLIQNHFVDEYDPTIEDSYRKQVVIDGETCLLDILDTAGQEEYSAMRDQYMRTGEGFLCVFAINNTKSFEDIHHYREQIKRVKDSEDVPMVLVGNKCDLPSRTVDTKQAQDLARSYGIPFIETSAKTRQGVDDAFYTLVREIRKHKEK

Row | Structure (SMILES) | IC50 [1, 2] [nM] | IC50 (MIA PaCa-2 cells; [3]) [nM] | further results
1 | CC1Cc2cc(C(=O)c3cc(F)c(NC(=O)/C=C/CNC4(C)COC4)c(F)c3)n3cccc(c23)-c2c(C(F)(F)F)cc3c(ncn3C)c2O1 (single isomer, unassigned) [Example 131, (E)-N-(4-(9,13-dimethyl-7-(trifluoromethyl)-13,14-dihydro-9H-imidazo[4″,5″:5′,6′]benzo[1′,2′:2,3]oxocino[4,5,6-hi]indolizine-2-carbonyl)-2,6-difluorophenyl)-4-((3-methyloxetan-3-yl)amino)but-2-enamide] | 27.9 | – | IC50 (MIA PaCa-2 cells; Table 3-1): 40.8 nM
2 | Cn1cnc2c3c(c(C(F)(F)F)cc21)-c1cccn2c(C(=O)c4cc(F)c(NC(=O)/C=C/CN5C6COCC5C6)c(F)c4)cc(c12)CCO3 [Example 212, (E)-4-(3-oxa-6-azabicyclo-[3.1.1]heptan-6-yl)-N-(2,6-difluoro-4-(9-meth-yl-7-(trifluoromethyl)-13,14-dihydro-9H-imidazo-[4″,5″:5′,6′]benzo[1′,2′: 2,3]oxocino[4,5,6-hi]-indolizine-2-carbonyl)-phenyl)but-2-enamide] | 16.3 | 4.16 | –
3 | COc1cc2c(ncn2C)c2c1-c1cccn3c(C(=O)c4cc(F)c(NC(=O)/C=C/CN[C@H]5CCOC5)c(F)c4)cc(c13)CCN2C (single isomer, unassigned) [Example 159] | 7.22 | 8.16 | –
4 | CN1CCc2cc(C(=O)c3cc(F)c(NC(=O)C=CCNC4COCC4O)c(F)c3)n3cccc(c23)-c2c(C(F)(F)F)cc3c(ncn3C)c21 [Example 138, (E)-N-(4-(9,12-dimethyl-7-(trifluoromethyl)-9,12,13,14-tetrahydro-imidazo[4″,5″:5′,6′]benzo-[1′,2′:2,3]azocino[4,5,6-hi]indolizine-2-carbonyl)-2,6-difluorophenyl)-4-(((3R,4S)-4-hydroxytetra-hydrofuran-3-yl)amino)-but-2-enamide] | 47.2 | 30.8 | –
5 | CCN1CCn2cc(C(=O)c3cc(F)c(NC(=O)/C=C/CN[C@H]4CC[C@H](OC)CC4)c(F)c3)c3cccc(c32)-c2c(C)cc3c(nc(C)n3C)c21 [Example 66, (E)-N-(4-(11-ethyl-6,8,9-trimethyl-8,11,12,13-tetra-hydroimidazo[4″,5″:5′,6′]-benzo[1′,2′:5,6][1,4]diazo-cino[7,8,1-hi]indole-2-carbonyl)-2,6-difluoro-phenyl)-4-(((1r,4r)-4-meth-oxycyclohexyl)amino)but-2-enamide] | – | 30.1 | IC50 [1, 4]: 53.4 nM
6 | CO[C@H]1CC[C@H](NC/C=C/C(=O)Nc2c(F)cc(C(=O)c3cn4c5c(cccc35)-c3c(C)cc5c(nc(C)n5C)c3OC4)cc2F)CC1 [Example 16, (E)-N-(2,6-difluoro-4-(2,3,5-trimethyl-3H,12H-imidazo[4″,5″.3′,4′]benzo[1′,2:6,7][1,3]oxazepino[5,4,3-hi]indole-9-carbonyl)phenyl)-4-(((1r,4r)-4-methoxycyclohexyl)amino)but-2-enamide] | – | – | IC50 (MIA PaCa-2 cells; [5]): 56 nM; IC50 [1, 6]: 100 nM
7 | CO[C@H]1CC[C@H](NC/C=C/C(=O)Nc2c(F)cc(C(=O)c3cn4c5c(cccc35)-c3c(C)cc5c(nc(C)n5C)c3OC[C@@H]4C)cc2F)CC1 [Example 18, (E)-N-(2,6-difluoro-4-((S)-6,8,9,13-tetramethyl-12,13-dihydro-8H-imidazo[4″,5″:3′,4]benzo[1′,2′:7,8][1,4]oxazocino[6,5,4-hi]indole-2-carbonyl)phenyl)-4-(((1,4r)-4-methoxycyclohexyl)amino)but-2-enamide] | – | – | IC50 (MIA PaCa-2 cells; [5]): 21 nM; IC50 [1, 6]: 19 nM
8 | CN1CCc2cc(C(=O)c3cc(F)c(NC(=O)/C=C/CN[C@@H]4CCCC[C@H]4O)c(F)c3)n3cccc(c23)-c2c(C(F)(F)F)cc3c(ncn3C)c21 [Example 100, (E)-N-(4-(9,12-dimethyl-7-(trifluoromethyl)-9,12,13,14-tetrahydro-imidazo[4″,5″:5′,6′]benzo-[1′,2′:2,3]azocino[4,5,6-hi]indolizine-2-carbonyl)-2,6-difluorophenyl)-4-(((1R,2R)-2-hydroxy-cyclohexyl)amino)but-2-enamide] | 34.5 | 23.4 | –
9 | Cc1nc2c3c(c(C(F)(F)F)cc2n1C)-c1cccn2c(C(=O)c4cc(F)c(NC(=O)/C=C/CNC5(C)CCOCC5)c(F)c4)cc(c12)CCN3C (single isomer, unassigned) [Example 70, (E)-N-(2,6-difluoro-4-(9,10,12-trimethyl-7-(tri-fluoromethyl)-9,12,13,14-tetrahydroimidazo[4″,5″: 5′,6′]benzo[1′,2′:2,3]-azocino[4,5,6-hi]indol-izine-2-carbonyl)phenyl)-4-((4-methyltetrahydro-2H-pyran-4-yl)amino)but-2-enamide] | 9.85 | 2.49 | –
10 | COCc1nc2c3c(c(C(F)(F)F)cc2n1C)-c1cccn2c(C(=O)c4cc(F)c(NC(=O)/C=C/CNC5(C)COC5)c(F)c4)cc(c12)CCN3C (single isomer, unassigned) [Example 92, (E)-N-(2,6-difluoro-4-(10-(methoxymethyl)-9,12-dimethyl-7-(trifluoromethyl)-9,12,13,14-tetrahydroimidazo[4″,5″:5′,6′]benzo[1′,2′:2,3]azocino[4,5,6-hi]indolizine-2-carbonyl)phenyl)-4-((3-methyloxetan-3-yl)amino)but-2-enamide] | 19.9 | 12.1 | –
11 | CN1CCc2nc(C(=O)c3cc(F)c(NC(=O)/C=C/CN[C@H]4CCOC4)c(F)c3)n3cccc(c23)-c2c(C(F)(F)F)cc3c(ncn3C)c21 (single isomer, unassigned) [Example 167] | 27.9 | 16.4 | –
12 | Cc1cc2c(nc(C)n2C)c2c1-c1cccc3c(C(=O)c4cc(F)c(NC(=O)/C=C/CN[C@H]5C[C@@H]6CC[C@H]5O6)c(F)c4)cn(c13)CCN2C (racemic) [Example 135] | – | 28.9 | IC50 [1, 4]: 11 nM
13 | Cc1nc2c3c(c(C(F)(F)F)cc2n1C)-c1cccn2c(C(=O)c4cc(F)c(NC(=O)/C=C/CNC5(C)CCOC5)c(F)c4)cc(c12)CCO3 (single isomer, unassigned) [Example 52] | 4.55 | 1.44 | –
14 | COc1cc2c(nc(C)n2C)c2c1-c1cccn3c(C(=O)c4cc(F)c(NC(=O)/C=C/CNC5(C)CC5)c(F)c4)cc(c13)CCO2 [Example 194] | 10.3 | 6.38 | –
15 | Cn1cnc2c3c(c(C(F)(F)F)cc21)-c1cccn2c(C(=O)c4cc(F)c(NC(=O)/C=C/CN5CC6CCC5C6)c(F)c4)cc(c12)CCO3 (centres unmarked) [Example 234, (E)-4-(2-azabicyclo-[2.2.1]heptan-2-yl)-N-(2,6-difluoro-4-(9-meth-yl-7-(trifluoromethyl)-13,14-dihydro-9H-imidazo-[4″,5″:5′,6′]-benzo[1′,2′:2,3]oxocino-[4,5,6-hi]indolizine-2-carbonyl)phenyl)but-2-enamide] | 20.5 | 7.08 | –
16 | Cc1cc2c(nc(C)n2C)c2c1-c1cccc3c(C(=O)c4cc(F)c(NC(=O)/C=C/CN5CC[C@H]5CO)c(F)c4)cn(c13)CCN2C [Example 132, (S,E)-N-(2,6-difluoro-4-(6,8,9,11-tetramethyl-8,11,12,13-tetrahydro-imidazo[4″,5″:5′,6′]-benzo[1′,2′:5,6][1,4]-diazocino[7,8,1-hi]indole-2-carbonyl)phenyl)-4-(2-(hydroxymethyl)azetidin-1-yl)but-2-enamide] | – | 16.7 | IC50 [1, 4]: 10.8 nM
